Test results taken from ChEMBL document CHEMBL1201862, “PubChem BioAssay data set” (2004).
One block for each molecule: values may come before it. Active and inactive are the calls of the source.

How the values were obtained:
[1] = molecular target: T1, Caspase-3 (Homo sapiens, UniProt P42574); assay type: functional;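 also: Dose-response selectivity test against caspase-3 for candidate inhibitors of sentrin-specific proteases (SENPs)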
T1 sequence (P42574 whole entry): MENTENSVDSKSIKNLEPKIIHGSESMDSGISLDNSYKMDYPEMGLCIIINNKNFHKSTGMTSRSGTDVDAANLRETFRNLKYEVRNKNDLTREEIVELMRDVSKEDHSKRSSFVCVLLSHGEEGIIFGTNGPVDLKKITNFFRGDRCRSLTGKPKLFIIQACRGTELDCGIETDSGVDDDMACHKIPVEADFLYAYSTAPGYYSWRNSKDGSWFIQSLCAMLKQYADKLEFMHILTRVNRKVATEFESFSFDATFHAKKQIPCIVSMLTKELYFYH

[2] = molecular target: T2, Sentrin-specific protease 6 (Homo sapiens, UniProt Q9GZR1); assay type: functional;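 also: Luminescence-based dose-response confirmatory assay of SENP6 inhibition, following up an ultra-high-throughput screen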
T2 sequence (Q9GZR1 whole entry): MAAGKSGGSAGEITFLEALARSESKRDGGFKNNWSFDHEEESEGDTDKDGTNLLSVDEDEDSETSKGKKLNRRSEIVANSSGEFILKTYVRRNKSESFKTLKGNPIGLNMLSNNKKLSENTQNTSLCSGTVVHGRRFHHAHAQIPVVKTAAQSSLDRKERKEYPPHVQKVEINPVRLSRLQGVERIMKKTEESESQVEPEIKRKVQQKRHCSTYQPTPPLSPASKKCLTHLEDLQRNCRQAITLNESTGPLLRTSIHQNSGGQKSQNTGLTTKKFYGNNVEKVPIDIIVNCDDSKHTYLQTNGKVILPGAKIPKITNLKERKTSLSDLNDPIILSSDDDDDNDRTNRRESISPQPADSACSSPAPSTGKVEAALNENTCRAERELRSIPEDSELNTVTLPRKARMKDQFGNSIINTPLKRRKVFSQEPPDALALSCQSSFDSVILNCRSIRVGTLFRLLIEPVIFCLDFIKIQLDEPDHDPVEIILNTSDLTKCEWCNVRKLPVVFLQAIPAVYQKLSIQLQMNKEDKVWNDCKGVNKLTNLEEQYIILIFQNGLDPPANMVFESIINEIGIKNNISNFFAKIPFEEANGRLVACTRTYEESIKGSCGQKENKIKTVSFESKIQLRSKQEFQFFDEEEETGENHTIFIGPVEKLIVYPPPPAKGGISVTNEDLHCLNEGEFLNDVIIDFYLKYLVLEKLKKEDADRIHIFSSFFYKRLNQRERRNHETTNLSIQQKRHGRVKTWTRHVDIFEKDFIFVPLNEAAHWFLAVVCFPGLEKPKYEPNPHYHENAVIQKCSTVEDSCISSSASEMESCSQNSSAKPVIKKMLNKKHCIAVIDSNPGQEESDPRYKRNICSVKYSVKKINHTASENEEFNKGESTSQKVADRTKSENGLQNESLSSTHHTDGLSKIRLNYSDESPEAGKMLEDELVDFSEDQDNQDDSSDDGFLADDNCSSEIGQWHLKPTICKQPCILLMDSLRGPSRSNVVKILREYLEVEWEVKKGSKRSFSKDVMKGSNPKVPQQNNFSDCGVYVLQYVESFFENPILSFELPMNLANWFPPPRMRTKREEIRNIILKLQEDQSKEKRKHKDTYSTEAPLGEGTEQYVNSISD

[3] = molecular target: T3, Oxysterols receptor LXR-beta (Homo sapiens, UniProt P55055); test: LXR agonists, Gal4 luciferase reporter, dose response, counter-screen for ssDAF-12 agonist project, cell-based, luminescence, HEK293, S. stercoralis campaign (AID 720737); assay type: functional; settings: read-out: IC50 (the source's name)
T3 sequence (P55055 whole entry): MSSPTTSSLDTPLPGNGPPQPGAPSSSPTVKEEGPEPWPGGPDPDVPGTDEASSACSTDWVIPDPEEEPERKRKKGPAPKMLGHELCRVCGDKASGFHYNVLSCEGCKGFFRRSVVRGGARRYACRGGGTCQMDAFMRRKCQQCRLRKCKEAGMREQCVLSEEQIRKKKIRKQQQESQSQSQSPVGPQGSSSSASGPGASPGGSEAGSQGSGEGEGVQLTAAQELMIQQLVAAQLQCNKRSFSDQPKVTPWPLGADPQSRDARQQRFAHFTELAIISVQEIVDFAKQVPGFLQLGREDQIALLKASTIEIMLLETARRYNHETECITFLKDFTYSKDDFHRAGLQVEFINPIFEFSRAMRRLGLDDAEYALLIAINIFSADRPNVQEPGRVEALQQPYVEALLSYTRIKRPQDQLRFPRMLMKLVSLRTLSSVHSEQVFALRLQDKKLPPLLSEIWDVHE

[4] = molecular target: T4, Sentrin-specific protease 8 (Homo sapiens, UniProt Q96LD8); assay type: functional;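 also: luminescence read-out of SENP8 inhibition, dose-response confirmation following an ultra-high-throughput screen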
T4 sequence (Q96LD8 whole entry): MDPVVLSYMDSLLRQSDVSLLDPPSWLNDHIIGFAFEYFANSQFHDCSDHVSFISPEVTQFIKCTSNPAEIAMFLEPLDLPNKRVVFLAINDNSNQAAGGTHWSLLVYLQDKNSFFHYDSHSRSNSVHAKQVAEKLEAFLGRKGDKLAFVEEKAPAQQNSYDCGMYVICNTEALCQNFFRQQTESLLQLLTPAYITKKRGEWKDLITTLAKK

[5] = molecular target: T3, Oxysterols receptor LXR-beta; assay type: functional, cell-based
[6] = cells
[7] = Luminescence-based cell-based high throughput dose response assay to identify activators of the DAF-12 from the parasite S. stercoralis (ssDAF-12).; assay type: functional
[8] = molecular target: T5, Sentrin-specific protease 7 (Homo sapiens, UniProt Q9BQF6); assay type: functional;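 also: Luminescence-based dose-response confirmation of ultra-high-throughput screening hits, measuring inhibition of SENP7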
T5 sequence (Q9BQF6 whole entry): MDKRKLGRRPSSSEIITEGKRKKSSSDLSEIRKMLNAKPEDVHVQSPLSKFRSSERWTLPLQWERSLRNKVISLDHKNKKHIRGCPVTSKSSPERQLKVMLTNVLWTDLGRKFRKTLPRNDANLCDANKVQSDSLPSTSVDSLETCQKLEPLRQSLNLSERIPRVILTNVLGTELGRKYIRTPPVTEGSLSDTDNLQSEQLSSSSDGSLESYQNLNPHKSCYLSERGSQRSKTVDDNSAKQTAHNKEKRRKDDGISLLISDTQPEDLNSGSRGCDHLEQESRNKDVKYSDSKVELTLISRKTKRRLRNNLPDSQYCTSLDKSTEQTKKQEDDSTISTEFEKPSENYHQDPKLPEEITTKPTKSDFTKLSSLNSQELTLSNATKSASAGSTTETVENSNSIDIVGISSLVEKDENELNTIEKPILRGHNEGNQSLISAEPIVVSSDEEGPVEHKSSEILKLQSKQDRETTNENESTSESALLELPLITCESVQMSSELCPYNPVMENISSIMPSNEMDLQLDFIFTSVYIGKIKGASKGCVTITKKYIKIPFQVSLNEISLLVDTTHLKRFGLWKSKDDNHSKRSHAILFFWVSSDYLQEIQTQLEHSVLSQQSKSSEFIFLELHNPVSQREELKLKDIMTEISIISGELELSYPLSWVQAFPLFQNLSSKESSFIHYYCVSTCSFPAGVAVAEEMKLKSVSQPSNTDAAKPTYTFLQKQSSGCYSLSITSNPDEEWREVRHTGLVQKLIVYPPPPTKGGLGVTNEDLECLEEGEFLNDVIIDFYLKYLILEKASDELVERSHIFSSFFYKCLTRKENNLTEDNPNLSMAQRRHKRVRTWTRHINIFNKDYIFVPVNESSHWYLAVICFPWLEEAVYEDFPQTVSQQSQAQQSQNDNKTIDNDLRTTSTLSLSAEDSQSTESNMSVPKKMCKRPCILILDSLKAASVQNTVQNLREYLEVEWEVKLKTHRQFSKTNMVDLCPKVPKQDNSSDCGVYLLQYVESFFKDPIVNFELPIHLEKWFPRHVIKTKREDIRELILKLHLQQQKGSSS

[9] = NIH:OVCAR-3 ovarian cancer cell cytotoxicity, dose response, PAX8 inhibitor project, plate reader, dry powder samples (AID 743044); assay type: functional, cell-based
[10] = cytotoxicity in OVCAR8 ovarian cancer cells, dose response, PAX8 project, cell-based, plate reader, dry powder samples (AID 743197); assay type: functional; settings: OVCAR-8
[11] = molecular target: Paired box protein Pax-8 (Homo sapiens, UniProt Q06710); test: inhibitors of PAX8-driven TPO luciferase reporter, dose response, RMG-I cells, cherry-pick (AID 687027); assay type: functional, cell-based;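 also: luciferase reporter driven by Pax8 target thyroperoxidase promoter measured by SteadyGlo luminescence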
[12] = A2780 ovarian cancer cell cytotoxicity, dose response, cytotoxicity control, plate reader, dry powder samples (AID 743046); assay type: functional, cell-based
[13] = molecular target: T6, Aminopeptidase N (Plasmodium falciparum FcB1/Columbia, UniProt O96935); test: P. falciparum M1AAP inhibitors, biochemical, fluorogenic H-Leu-NHMec substrate, 1536-well (AID 1445); set-up: species or system Plasmodium falciparum 3D7, 3D7
T6 sequence (O96935 whole entry): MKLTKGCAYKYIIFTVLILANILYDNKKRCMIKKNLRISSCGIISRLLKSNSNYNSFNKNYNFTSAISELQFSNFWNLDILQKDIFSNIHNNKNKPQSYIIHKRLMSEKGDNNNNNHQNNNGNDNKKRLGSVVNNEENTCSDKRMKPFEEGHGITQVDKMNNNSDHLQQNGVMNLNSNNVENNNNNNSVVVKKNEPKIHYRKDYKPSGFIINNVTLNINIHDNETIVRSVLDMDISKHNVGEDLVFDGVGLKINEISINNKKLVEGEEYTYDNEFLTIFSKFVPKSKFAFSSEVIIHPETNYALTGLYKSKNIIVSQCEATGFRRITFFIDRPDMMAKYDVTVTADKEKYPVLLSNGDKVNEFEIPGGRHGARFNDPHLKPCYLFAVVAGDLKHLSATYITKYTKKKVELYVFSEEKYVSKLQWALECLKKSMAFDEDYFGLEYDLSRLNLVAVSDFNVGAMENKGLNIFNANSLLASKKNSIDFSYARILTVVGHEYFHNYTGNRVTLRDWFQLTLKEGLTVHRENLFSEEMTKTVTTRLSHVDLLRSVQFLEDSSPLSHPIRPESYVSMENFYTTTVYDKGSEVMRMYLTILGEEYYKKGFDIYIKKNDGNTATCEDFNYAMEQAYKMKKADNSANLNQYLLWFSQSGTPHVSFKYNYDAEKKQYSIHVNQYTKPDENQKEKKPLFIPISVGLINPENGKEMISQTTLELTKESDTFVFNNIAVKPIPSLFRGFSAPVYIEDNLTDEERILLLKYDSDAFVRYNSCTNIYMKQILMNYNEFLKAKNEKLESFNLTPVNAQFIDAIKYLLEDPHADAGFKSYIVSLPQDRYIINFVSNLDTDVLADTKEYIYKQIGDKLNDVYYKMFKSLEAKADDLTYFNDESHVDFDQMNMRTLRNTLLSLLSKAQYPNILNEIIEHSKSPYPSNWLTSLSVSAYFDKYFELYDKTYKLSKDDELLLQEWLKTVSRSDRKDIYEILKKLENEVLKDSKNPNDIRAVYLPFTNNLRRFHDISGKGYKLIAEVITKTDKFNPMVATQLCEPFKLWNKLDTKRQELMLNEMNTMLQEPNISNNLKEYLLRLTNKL

[14] = molecular target: Induced myeloid leukemia cell differentiation protein Mcl-1 (Homo sapiens, UniProt Q07820); assay type: functional
[15] = molecular target: T3, Oxysterols receptor LXR-beta; assay type: functional, cell-based; remark: listed apart in the source
[16] = molecular target: Large T antigen (Simian virus 40, UniProt P03070); assay type: functional, Betapolyomavirus macacae;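 also: Confirmatory-stage PubChem screen for compounds that inhibit SV40 T antigen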
Large T antigen, sequence (P03070 whole entry): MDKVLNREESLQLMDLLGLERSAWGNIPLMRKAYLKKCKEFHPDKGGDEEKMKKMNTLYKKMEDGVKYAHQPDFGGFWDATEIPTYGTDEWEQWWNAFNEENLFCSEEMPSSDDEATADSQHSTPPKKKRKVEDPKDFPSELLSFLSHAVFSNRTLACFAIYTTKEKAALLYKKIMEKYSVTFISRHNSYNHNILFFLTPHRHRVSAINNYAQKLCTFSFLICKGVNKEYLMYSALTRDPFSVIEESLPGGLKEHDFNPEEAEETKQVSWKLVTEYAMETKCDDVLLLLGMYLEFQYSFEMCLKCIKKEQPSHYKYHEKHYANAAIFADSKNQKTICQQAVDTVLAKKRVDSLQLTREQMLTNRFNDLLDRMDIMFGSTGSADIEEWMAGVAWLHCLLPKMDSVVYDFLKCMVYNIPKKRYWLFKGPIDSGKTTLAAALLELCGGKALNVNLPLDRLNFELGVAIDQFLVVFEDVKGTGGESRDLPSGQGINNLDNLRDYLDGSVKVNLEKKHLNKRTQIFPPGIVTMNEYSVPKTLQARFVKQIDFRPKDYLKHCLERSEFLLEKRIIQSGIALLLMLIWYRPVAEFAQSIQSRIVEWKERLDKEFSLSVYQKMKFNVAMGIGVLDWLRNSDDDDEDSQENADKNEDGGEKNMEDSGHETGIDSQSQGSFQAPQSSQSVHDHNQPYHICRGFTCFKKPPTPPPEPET

Induced myeloid leukemia cell differentiation protein Mcl-1, sequence (Q07820 whole entry): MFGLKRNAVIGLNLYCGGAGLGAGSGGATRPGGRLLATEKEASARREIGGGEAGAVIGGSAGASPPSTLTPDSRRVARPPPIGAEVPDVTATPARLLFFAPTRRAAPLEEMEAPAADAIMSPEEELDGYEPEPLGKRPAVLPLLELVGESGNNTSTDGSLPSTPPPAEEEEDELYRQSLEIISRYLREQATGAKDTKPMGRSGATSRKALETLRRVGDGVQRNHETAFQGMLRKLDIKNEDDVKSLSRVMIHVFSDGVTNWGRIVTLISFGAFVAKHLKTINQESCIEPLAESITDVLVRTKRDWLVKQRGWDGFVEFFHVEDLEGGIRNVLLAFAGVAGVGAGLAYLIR
Paired box protein Pax-8, sequence (Q06710 whole entry): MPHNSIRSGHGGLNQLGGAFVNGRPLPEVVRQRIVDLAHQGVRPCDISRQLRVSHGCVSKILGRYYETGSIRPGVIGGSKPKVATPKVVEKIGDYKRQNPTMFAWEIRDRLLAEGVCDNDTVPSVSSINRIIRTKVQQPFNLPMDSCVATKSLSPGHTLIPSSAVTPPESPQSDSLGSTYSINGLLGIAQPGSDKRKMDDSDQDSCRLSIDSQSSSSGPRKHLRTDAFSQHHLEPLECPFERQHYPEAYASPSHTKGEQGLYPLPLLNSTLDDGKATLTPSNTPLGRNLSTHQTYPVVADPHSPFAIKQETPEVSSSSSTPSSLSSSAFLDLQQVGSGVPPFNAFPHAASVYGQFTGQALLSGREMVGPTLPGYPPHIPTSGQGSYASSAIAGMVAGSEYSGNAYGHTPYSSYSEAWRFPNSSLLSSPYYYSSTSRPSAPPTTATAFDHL

SMILES: Cc1ccc(Nc2nc(-c3cccnc3)cs2)cc1C
IC50 [1]: 34.4 µM (active)
IC50 [2]: 7.01 µM (active)
EC50 [3]: > 67.6 µM (inactive)
IC50 [4]: 7.16 µM (active)
EC50 [5]: > 67.6 µM (inactive)
EC50 [6]: > 67.6 µM (inactive)
IC50 [7]: > 67.6 µM (inactive)
IC50 [8]: 5.02 µM (active)

SMILES: Cc1ccc(-c2noc(-c3ccccc3Br)n2)cc1
EC50 [5]: > 67.5 µM (inactive)
EC50 [6]: > 67.5 µM (inactive)

SMILES: Cc1ccccc1S(=O)(=O)N1CC[C@@H]2[C@H](CO)Nc3ccc(-c4cccc(F)c4)cc3[C@@H]21
AC50 [9]: 53.8 µM (active)
AC50 [10]: 46.7 µM (active)
AC50 [11]: 13.6 µM (active)
AC50 [12]: 711 nM (active)

IC50 [13]: 66.1 µM (active)
IC50 [14]: 3.26 µM (active)
EC50 [15]: > 67.5 µM (inactive)
IC50 [16]: 7.62 µM (active)
SMILES: COc1cc(/C=C2/C(=N)N3N=C(c4ccc(C)cc4)SC3=NC2=O)ccc1O
